Numbered stars: 1 amine (or outer) side, 2 acyl side, 3 side chain; on linkers, the order of the positions; unused ones are H or OH. Bridge positions count the residues as written; N and C are the ends. Square brackets hold non-standard residues; d marks the D form. Side chains are listed from the residue outwards. Peptide text beside a SMILES is read from it. * marks the point of attachment. C18 diacid = O=C(O)CCCCCCCCCCCCCCCCC(=O)*; γGlu = O=C(O)[C@H](CCC(=O)[*:2])N[*:1]; αMeF = C[C@](N)(Cc1ccccc1)C(=O)O; Dab = NCC[C@H](N)C(=O)O; Aib = CC(C)(N)C(=O)O

Test [1] addresses T1, human amylin receptor (calcitonin receptor co-expressed with receptor activity modifying protein, RAMP3) (hAMYR3) (Homo sapiens, UniProt O60896+P30988).
T1 construct: expressed in transfected cells
T1 sequence (P30988 25-474): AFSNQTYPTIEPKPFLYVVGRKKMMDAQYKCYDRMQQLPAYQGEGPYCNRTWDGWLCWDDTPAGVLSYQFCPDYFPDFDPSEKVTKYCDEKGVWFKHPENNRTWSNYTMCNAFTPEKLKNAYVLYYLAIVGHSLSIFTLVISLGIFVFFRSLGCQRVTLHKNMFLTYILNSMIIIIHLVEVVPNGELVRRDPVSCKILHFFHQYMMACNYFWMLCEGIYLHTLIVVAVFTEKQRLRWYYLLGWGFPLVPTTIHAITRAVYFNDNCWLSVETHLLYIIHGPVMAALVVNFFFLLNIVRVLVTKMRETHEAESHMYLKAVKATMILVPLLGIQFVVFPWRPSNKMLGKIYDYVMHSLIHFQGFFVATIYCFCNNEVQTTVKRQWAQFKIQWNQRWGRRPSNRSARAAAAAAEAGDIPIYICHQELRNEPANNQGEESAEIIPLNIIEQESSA
T1 sequence (O60896 24-148 partner): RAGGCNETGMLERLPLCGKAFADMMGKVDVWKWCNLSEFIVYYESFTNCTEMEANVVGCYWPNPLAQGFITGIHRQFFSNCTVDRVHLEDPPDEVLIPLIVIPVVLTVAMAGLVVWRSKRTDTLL
Nature of the test: cAMP production in 1321N1 cells with stable recombinant expression of human amylin receptor (hAMYR3). It counts as cell-based. The settings on record: for Ratio (selectivity hAMYR vs hCTR, ratio of EC50 values at the two receptors): EC50 hCTR / EC50 hAMYR3; for EC50: cAMP, 1321N1 cells, assay buffer with 0.1% BSA, read-out: EC50 (pM) hAMYR3. A digest of the protocol:
(§1)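 EC50 values come from 4-parameter logistic fits of HTRF cAMP signal, normalised to maximal calcitonin or amylin effect. Peptides were tested in duplicate for 30 min at RT in IBMX-containing (0.5 mM) BSA/HEPES buffer pH 7.4 on stable 1321N1 (human CTR, AMYR3) or HEK (rat CTR, AMYR3) lines.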

For test [2], the target named is T2, human calcitonin receptor (hCTR) (Homo sapiens, UniProt P30988).
T2 construct: expressed in transfected cells
T2 sequence (P30988 25-474): T1 sequence (P30988 25-474)
The experiment in a line: cAMP production in 1321N1 cells with stable recombinant expression of human calcitonin receptor (hCTR). The settings on record: cAMP, 1321N1 cells, assay buffer with 0.1% BSA; read-out: EC50 (pM) hCTR. It counts as cell-based. In a few lines: as §1

`CC[C@H](C)[C@H](NC(=O)[C@@H]1CCCN1C(=O)CNC(=O)[C@](C)(Cc1ccccc1)NC(=O)[C@H](CC(N)=O)NC(=O)[C@H](CC(N)=O)NC(=O)[C@H](CO)NC(=O)[C@H](CO)NC(=O)[C@H](Cc1c[nH]cn1)NC(=O)[C@@H](NC(=O)[C@H](CC(C)C)NC(=O)[C@H](Cc1ccccc1)NC(=O)[C@H](CCN)NC(=O)[C@H](C)NC(=O)[C@H](CC(C)C)NC(=O)[C@H](CCCNC(=N)N)NC(=O)[C@H](CCC(N)=O)NC(=O)[C@@H](NC(=O)[C@H](C)NC(=O)[C@@H]1CSSC[C@H](NC(=O)[C@H](CCCCN)NC(=O)[C@@H](N)CCCCNC(=O)CC[C@H](NC(=O)CCCCCCCCCCCCCCCCC(=O)O)C(=O)O)C(=O)N[C@@H](CC(N)=O)C(=O)N[C@@H]([C@@H](C)O)C(=O)N[C@@H](C)C(=O)N[C@@H]([C@@H](C)O)C(=O)N1)[C@@H](C)O)C(C)C)C(=O)N[C@@H](CC(C)C)C(=O)N1CCC[C@H]1C(=O)N1CCC[C@H]1C(=O)N[C@H](C(=O)N[C@@H](CCC(=O)O)C(=O)N[C@H](C(=O)NCC(=O)N[C@@H](CO)C(=O)N[C@@H](CC(N)=O)C(=O)N[C@H](C(=O)N[C@@H](Cc1ccc(O)cc1)C(N)=O)[C@@H](C)O)C(C)C)[C@@H](C)O` [Peptide 32, K(γE-C18diacid)K[CNTATC]ATQRLA(Dab)FLVHSSNN(αMePhe)GPILPPTEVGSNTY-amide] (H-K([γGlu-C18 diacid])KCNTATCATQRLA[Dab]FLVHSSNN[αMeF]GPILPPTEVGSNTY-NH2; disulfide 3-8; N-terminus assumed): in test [1], the “Ratio (selectivity hAMYR vs hCTR, ratio of EC50 values at the two receptors)” value is on record as 15 and the EC50 turned out to be 742 pM. In test [2], the EC50 stood at 11100 pM.

For `CC[C@H](C)[C@H](NC(=O)[C@@H]1CCCN1C(=O)CNC(=O)[C@H](Cc1ccccc1)NC(=O)[C@H](CC(N)=O)NC(=O)[C@H](Cc1c[nH]cn1)NC(=O)[C@H](CO)NC(=O)[C@H](CO)NC(=O)[C@H](Cc1c[nH]cn1)NC(=O)C(C)(C)NC(=O)[C@H](CC(C)C)NC(=O)[C@H](Cc1ccccc1)NC(=O)[C@H](CC(N)=O)NC(=O)[C@H](C)NC(=O)[C@H](CC(C)C)NC(=O)[C@H](CCCNC(=N)N)NC(=O)[C@H](CCC(N)=O)NC(=O)[C@@H](NC(=O)[C@H](C)NC(=O)[C@@H]1CSSC[C@H](NC(=O)[C@H](CCCCN)NC(=O)[C@@H](N)CCCCNC(=O)CC[C@H](NC(=O)CCCCCCCCCCCCCCCCC(=O)O)C(=O)O)C(=O)N[C@@H](CC(N)=O)C(=O)N[C@@H]([C@@H](C)O)C(=O)N[C@@H](C)C(=O)N[C@@H]([C@@H](C)O)C(=O)N1)[C@@H](C)O)C(=O)N[C@@H](CC(C)C)C(=O)N1CCC[C@H]1C(=O)N1CCC[C@H]1C(=O)N[C@H](C(=O)N[C@@H](CC(N)=O)C(=O)N[C@H](C(=O)NCC(=O)N[C@@H](CO)C(=O)N[C@@H](CC(N)=O)C(=O)N[C@H](C(=O)N[C@@H](Cc1ccc(O)cc1)C(N)=O)[C@@H](C)O)C(C)C)[C@@H](C)O` [Peptide 131] (H-K([γGlu-C18 diacid])KCNTATCATQRLANFL[Aib]HSSHNFGPILPPTNVGSNTY-NH2; disulfide 3-8), the “Ratio (selectivity hAMYR vs hCTR, ratio of EC50 values at the two receptors)” value in test [1] stood at 20.5. Also, the EC50 is 737 pM in test [1] and 15100 pM in test [2].

With `CC[C@H](C)[C@H](NC(=O)[C@@H]1CCCN1C(=O)CNC(=O)[C@H](Cc1ccccc1)NC(=O)[C@H](CC(N)=O)NC(=O)C(C)(C)NC(=O)[C@H](CO)NC(=O)[C@H](CO)NC(=O)[C@H](Cc1c[nH]cn1)NC(=O)[C@@H](NC(=O)[C@H](CC(C)C)NC(=O)[C@H](Cc1ccccc1)NC(=O)[C@H](CC(N)=O)NC(=O)[C@H](C)NC(=O)[C@H](CC(C)C)NC(=O)[C@H](CCCNC(=N)N)NC(=O)[C@H](CCC(N)=O)NC(=O)[C@@H](NC(=O)[C@H](C)NC(=O)[C@@H]1CSSC[C@H](NC(=O)[C@@H](N)CCCCNC(=O)CC[C@H](NC(=O)CC[C@H](NC(=O)CCCCCCCCCCCCCCCCC(=O)O)C(=O)O)C(=O)O)C(=O)N[C@@H](CC(N)=O)C(=O)N[C@@H]([C@@H](C)O)C(=O)N[C@@H](C)C(=O)N[C@@H]([C@@H](C)O)C(=O)N1)[C@@H](C)O)C(C)C)C(=O)N[C@@H](CC(C)C)C(=O)N1CCC[C@H]1C(=O)N1CCC[C@H]1C(=O)N[C@H](C(=O)N[C@@H](CC(N)=O)C(=O)N[C@H](C(=O)NCC(=O)N[C@@H](CO)C(=O)N[C@@H](CCCNC(=N)N)C(=O)N[C@H](C(=O)N[C@@H](Cc1ccc(O)cc1)C(N)=O)[C@@H](C)O)C(C)C)[C@@H](C)O` [Peptide 72, K(γE-γE-C18diacid)[CNTATC]ATQRLANFLVHSS(Aib)NFGPILPPTNVGSRTY-amide] (H-K([γGlu-γGlu-C18 diacid])CNTATCATQRLANFLVHSS[Aib]NFGPILPPTNVGSRTY-NH2; disulfide 2-7; N-terminus assumed), the “Ratio (selectivity hAMYR vs hCTR, ratio of EC50 values at the two receptors)” value in test [1] was determined as 18. For the same compound, the EC50 amounted to 227 pM in test [1] and 4000 pM in test [2].

Turning to `CC[C@H](C)[C@H](NC(=O)[C@@H]1CCCN1C(=O)CNC(=O)[C@H](Cc1ccccc1)NC(=O)[C@H](CC(N)=O)NC(=O)C(C)(C)NC(=O)[C@H](CO)NC(=O)[C@H](CO)NC(=O)[C@H](Cc1c[nH]cn1)NC(=O)[C@H](CO)NC(=O)[C@H](CC(C)C)NC(=O)[C@H](Cc1ccccc1)NC(=O)[C@H](CC(N)=O)NC(=O)[C@H](C)NC(=O)[C@H](CC(C)C)NC(=O)[C@H](CCCNC(=N)N)NC(=O)[C@H](CCC(N)=O)NC(=O)[C@@H](NC(=O)[C@H](C)NC(=O)[C@@H]1CSSC[C@H](NC(=O)[C@H](CCCCN)NC(=O)[C@@H](N)CCCCNC(=O)CC[C@H](NC(=O)CCCCCCCCCCCCCCCCC(=O)O)C(=O)O)C(=O)N[C@@H](CC(N)=O)C(=O)N[C@@H]([C@@H](C)O)C(=O)N[C@@H](C)C(=O)N[C@@H]([C@@H](C)O)C(=O)N1)[C@@H](C)O)C(=O)N[C@@H](CC(C)C)C(=O)N1CCC[C@H]1C(=O)N1CCC[C@H]1C(=O)N[C@H](C(=O)N[C@@H](CC(N)=O)C(=O)N[C@H](C(=O)N1CCC[C@H]1C(=O)N[C@@H](CO)C(=O)N[C@@H](CC(N)=O)C(=O)N[C@H](C(=O)N[C@@H](Cc1ccc(O)cc1)C(N)=O)[C@@H](C)O)C(C)C)[C@@H](C)O` [Peptide 54, K(γE-C18diacid)K[CNTATC]ATQRLANFLSHSS(Aib)NFGPILPPTNVPSNTY-amide] (H-K([γGlu-C18 diacid])KCNTATCATQRLANFLSHSS[Aib]NFGPILPPTNVPSNTY-NH2; disulfide 3-8; N-terminus assumed), the “Ratio (selectivity hAMYR vs hCTR, ratio of EC50 values at the two receptors)” value in test [1] worked out at 0.2. For the same compound, the EC50 came to 7590 pM in test [1] and 1510 pM in test [2].

For the compound `CC[C@H](C)[C@H](NC(=O)[C@@H]1CCCN1C(=O)CNC(=O)[C@H](Cc1ccccc1)NC(=O)[C@H](CC(N)=O)NC(=O)C(C)(C)NC(=O)[C@H](CO)NC(=O)[C@H](CO)NC(=O)[C@H](Cc1c[nH]cn1)NC(=O)[C@H](CCCNC(=N)N)NC(=O)[C@H](CC(C)C)NC(=O)[C@H](Cc1ccccc1)NC(=O)[C@H](CC(N)=O)NC(=O)[C@H](C)NC(=O)[C@H](CC(C)C)NC(=O)[C@H](CCCNC(=N)N)NC(=O)[C@H](CCC(N)=O)NC(=O)[C@@H](NC(=O)[C@H](C)NC(=O)[C@@H]1CSSC[C@H](NC(=O)[C@@H](N)CCCCNC(=O)CC[C@H](NC(=O)CC[C@H](NC(=O)CCCCCCCCCCCCCCCCC(=O)O)C(=O)O)C(=O)O)C(=O)N[C@@H](CC(N)=O)C(=O)N[C@@H]([C@@H](C)O)C(=O)N[C@@H](C)C(=O)N[C@@H]([C@@H](C)O)C(=O)N1)[C@@H](C)O)C(=O)N[C@@H](CC(C)C)C(=O)N1CCC[C@H]1C(=O)N1CCC[C@H]1C(=O)N[C@H](C(=O)NC(C)(C)C(=O)N[C@H](C(=O)NCC(=O)N[C@@H](CO)C(=O)N[C@@H](CC(N)=O)C(=O)N[C@H](C(=O)N[C@@H](Cc1ccc(O)cc1)C(N)=O)[C@@H](C)O)C(C)C)[C@@H](C)O` [Peptide 90, K(γE-γE-C18diacid)[CNTATC]ATQRLANFLRHSS(Aib)NFGPILPPT(Aib)VGSNTY-amide] (H-K([γGlu-γGlu-C18 diacid])CNTATCATQRLANFLRHSS[Aib]NFGPILPPT[Aib]VGSNTY-NH2; disulfide 2-7; N-terminus assumed), in test [1], the “Ratio (selectivity hAMYR vs hCTR, ratio of EC50 values at the two receptors)” value is 15 and the EC50 worked out at 1060 pM. For the same compound, the EC50 in test [2] is 15600 pM.

Source of the values: US20240067693A1, “POLYPEPTIDES AND USES THEREOF” (MEDIMMUNE LIMITED, priority 2020, published 2024).
